Legend:
[1] = Solubility in aqueous buffer; type: physicochemical; conditions: insoluble above this concentration, read-out: solubility limit in aqueous buffer
anti-ANEC-BSA serum = experiment: Inhibition ELISA, anti-ANEC-BSA serum on ANEC-BSA coated wells; type: binding, rabbit; conditions: anti ANEC-BSA sera

## CCn1c2ccccc2c2cc(N)ccc21 [3-amino-N-ethyl-carbazole, 3-amino-N-ethylcarbazole]
[1]
  solubility: ≤ 1000 µM
anti-ANEC-BSA serum; free hapten as inhibitor, read-out: concentration giving 50% inhibition of antibody binding
  IC50: 10 µM
anti-ANEC-BSA serum; free hapten at 1 mM
  inhibition of antibody binding: 70%
